In ChEMBL document CHEMBL5375955, “Discovery of New Fusobacterium nucleatum Inhibitors to Attenuate Migratory Capability of Colon Cancer Cells by the Drug Repositioning Strategy” (J Med Chem, 2023):
In brackets after ≈: the same amount, converted by molar mass. Activity calls are given as the source filed them. The calls are words filed in the database; no cut-off is given here.

Experiments:
[1] = test system: Fusobacterium nucleatum; experiment: Antibacterial activity against Fusobacterium nucleatum ATCC 23726 assessed as bacterial growth inhibition incubated for 48 hrs by broth dilution susceptibility test; type: functional
[2] = test system: MC-38; experiment: Antiproliferative activity against mouse MC-38 cells assessed as inhibition of cell growth incubated for 48 hrs by CCK-8 assay; type: functional, cell-based; conditions: MC-38, 48 h
[3] = test system: HCT-116; experiment: Antiproliferative activity against human HCT-116 cells assessed as inhibition of cell growth incubated for 48 hrs by CCK-8 assay; type: functional, cell-based; conditions: HCT-116, 48 h
[4] = Cytotoxicity against HUVEC cells assessed as inhibition of cell growth incubated for 48 hrs by CCK-8 assay; type: toxicity, cell-based; conditions: human
[5] = Cytotoxicity against human L02 cells assessed as inhibition of cell growth incubated for 48 hrs by CCK-8 assay; type: toxicity, cell-based
[6] = test system: Fusobacterium nucleatum; experiment: Antibacterial activity against Fusobacterium nucleatum ATCC 23726 assessed as bacterial growth inhibition at 4 ug/ml incubated for 72 hrs by turbidimeter analysis; type: functional, organism-based; conditions: dose 4.0 µg/ml
[7] = test system: Fusobacterium nucleatum; experiment: Antibacterial activity against Fusobacterium nucleatum ATCC 23726 assessed as bacterial growth inhibition incubated for 72 hrs by turbidimeter analysis; type: functional, organism-based
[8] = test system: Fusobacterium nucleatum; experiment: Antibiofilm activity against Fusobacterium nucleatum ATCC 23726 assessed as inhibition of biofilm formation incubated for 48 hrs by crystal violet staining based assay; type: functional, organism-based; conditions: dose 0.5-16 µg/ml
[9] = test system: Escherichia coli; experiment: Antibacterial activity against Escherichia coli […] assessed as bacterial growth inhibition incubated for 48 hrs by broth dilution susceptibility test; type: functional
[10] = test system: Enterococcus faecalis; experiment: Antibacterial activity against Enterococcus faecalis ATCC 29212 assessed as bacterial growth inhibition incubated for 48 hrs by broth dilution susceptibility test; type: functional
[11] = test system: Staphylococcus aureus; experiment: Antibacterial activity against Staphylococcus aureus ATCC 6538 assessed as bacterial growth inhibition incubated for 48 hrs by broth dilution susceptibility test; type: functional
[12] = test system: Peptostreptococcus anaerobius; experiment: Antibacterial activity against Peptostreptococcus anaerobius ATCC 27337 assessed as bacterial growth inhibition incubated for 48 hrs by broth dilution susceptibility test; type: functional
[13] = test system: Akkermansia muciniphila; experiment: Antibacterial activity against Akkermansia muciniphila ATCC BAA-835 assessed as bacterial growth inhibition incubated for 48 hrs by broth dilution susceptibility test; type: functional
[14] = test system: Salmonella enterica subsp. enterica serovar Paratyphi B; experiment: Antibacterial activity against Salmonella paratyphi B ATCC CMCC50094 assessed as bacterial growth inhibition incubated for 48 hrs by broth dilution susceptibility test; type: functional
[15] = test system: Shigella flexneri; experiment: Antibacterial activity against Shigella flexneri ATCC 12022 assessed as bacterial growth inhibition incubated for 48 hrs by broth dilution susceptibility test; type: functional
[16] = test system: Lactobacillus acidophilus; experiment: Antibacterial activity against Lactobacillus acidophilus ATCC CGMCC 1.577 assessed as bacterial growth inhibition incubated for 48 hrs by broth dilution susceptibility test; type: functional
[17] = test system: Fusobacterium nucleatum; experiment: Antibacterial activity against Fusobacterium nucleatum ATCC 23726 assessed as bacterial growth inhibition at 8 ug/ml incubated for 72 hrs by turbidimeter analysis; type: functional, organism-based; conditions: dose 8.0 µg/ml
[18] = test system: Fusobacterium nucleatum; experiment: Antibacterial activity against Fusobacterium nucleatum ATCC 23726 assessed as bacterial growth inhibition at 8 ug/ml incubated for 72 hrs by turbidimeter analysis relative to control; type: functional; design: scale not given: the % may be the effect or the level left; conditions: dose 8 µg/ml
[19] = test system: Fusobacterium nucleatum; experiment: Antibiofilm activity against Fusobacterium nucleatum ATCC 23726 assessed as inhibition of biofilm formation at 1 ug/ml incubated for 48 hrs by crystal violet staining based assay relative to control; type: functional
[20] = test system: Fusobacterium nucleatum; experiment: Antibacterial activity against Fusobacterium nucleatum ATCC 23726 assessed as downregulation of NTR gene expression incubated for 48 hrs by RT-qPCR analysis; type: functional, organism-based
[21] = test system: Fusobacterium nucleatum; experiment: Antibiofilm activity against Fusobacterium nucleatum ATCC 23726 assessed as downregulation of tnaA gene expression measured after 48 hrs by RT-qPCR analysis; type: functional, organism-based
[22] = test system: L02; experiment: Downregulation of HPPD gene expression in human L02 cells at 10 to 50 uM incubated for 48 hrs by RT-qPCR analysis; type: functional, cell-based; conditions: dose 10-50 µM
[23] = Acute toxicity in ICR mouse assessed as death rate at 1250 to 2592 mg/kg, po measured after 7 days; type: organism-based; conditions: in vivo, dose 1250-2592 mg/kg, time 7 day, read-out: Activity
[24] = Acute toxicity in po dosed ICR mouse assessed as animal death measured after 7 days; type: organism-based; conditions: in vivo, time 7 day
[25] = Acute toxicity in po dosed ICR mouse assessed as heart damage at 1500 mg/kg, po measured after 7 days by H and E staining based analysis; type: organism-based; conditions: in vivo, 168 h, time 7 day
[26] = Acute toxicity in po dosed ICR mouse assessed as liver damage at 1500 mg/kg, po measured after 7 days by H and E staining based analysis; type: organism-based; conditions: in vivo, 168 h, time 7 day
[27] = Acute toxicity in po dosed ICR mouse assessed as spleen damage at 1500 mg/kg, po measured after 7 days by H and E staining based analysis; type: organism-based; conditions: in vivo, 168 h, time 7 day
[28] = Acute toxicity in po dosed ICR mouse assessed as lung damage at 1500 mg/kg, po measured after 7 days by H and E staining based analysis; type: organism-based; conditions: in vivo, 168 h, time 7 day
[29] = Acute toxicity in po dosed ICR mouse assessed as kidney damage at 1500 mg/kg, po measured after 7 days by H and E staining based analysis; type: organism-based; conditions: in vivo, 168 h, time 7 day
[30] = Metabolic stability in mouse liver microsomes assessed as half life at 1 uM incubated for 45 mins in presence of NADPH by LC-MS/MS analysis; type: ADME, Microsome
[31] = Drug metabolism assessed as NTR(unknown origin)-mediated metabolism at 10 mM incubated for 2 hrs in presence of NADH by LC-MS analysis; type: ADME; conditions: bacteria, 10000 µM

CC1CS(=O)(=O)CCN1/N=C/c1ccc([N+](=O)[O-])o1 (stereo not given) [NIFURTIMOX]
MIC50 [1]: 16 µg/mL (≈ 55.7 µM)

Cc1ncc([N+](=O)[O-])n1C [DIMETRIDAZOLE]
MIC50 [1]: 1 µg/mL (≈ 7.09 µM)

CC(C)(C)c1ccc(C(O)CCCN2CCC(C(O)(c3ccccc3)c3ccccc3)CC2)cc1 (stereo not given) [TERFENADINE]
MIC50 [1]: 16 µg/mL (≈ 33.9 µM)

O=[N+]([O-])c1ccc(COc2ccc([N+](=O)[O-])c(C(F)(F)F)c2)o1
MIC50 [1]: 4 µg/mL (≈ 12 µM) | IC50 [2]: 38 µM | IC50 [3]: 52 µM | IC50 at 48 h [4]: 9.6 µM | IC50 at 48 h [5]: 21 µM | Activity [6]: Active | Activity [7]: Dose-Dependent Effect | inhibition [8]: Dose-Dependent Effect | MIC50 [9]: 64 µg/mL (≈ 193 µM) | MIC50 [10]: 64 µg/mL (≈ 193 µM) | MIC50 [11]: 64 µg/mL (≈ 193 µM) | MIC50 [12]: 32 µg/mL (≈ 96.3 µM) | MIC50 [13]: > 64 µg/mL | MIC50 [14]: 64 µg/mL (≈ 193 µM) | MIC50 [15]: > 64 µg/mL | MIC50 [16]: > 64 µg/mL

O=C(NCc1ccccc1C(F)(F)F)c1ccc(C(F)(F)F)cc1[N+](=O)[O-]
MIC50 [1]: > 64 µg/mL

O=C(Nc1ccon1)c1ccc([N+](=O)[O-])cc1I
MIC50 [1]: > 64 µg/mL

NC(=O)c1ccc(NC(=O)c2ccc(C(F)(F)F)cc2)cc1
MIC50 [1]: > 64 µg/mL

O=C(Cn1cnc(=O)c2ccc(Cl)cc21)Nc1ccc([N+](=O)[O-])cc1Cl
MIC50 [1]: 64 µg/mL (≈ 163 µM)

OC1(c2ccc(Cl)c(C(F)(F)F)c2)CCN(CCCC(c2ccc(F)cc2)c2ccc(F)cc2)CC1 [PENFLURIDOL]
MIC50 [1]: 8 µg/mL (≈ 15.3 µM)

O=C(OCc1ccc([N+](=O)[O-])o1)c1ccc([N+](=O)[O-])c(Br)c1
MIC50 [1]: 4 µg/mL (≈ 10.8 µM) | IC50 [2]: 42 µM | IC50 [3]: 66 µM | IC50 at 48 h [4]: 31 µM | IC50 at 48 h [5]: 175 µM | Activity [17]: Active | Activity [7]: Dose-Dependent Effect | MIC50 [9]: > 64 µg/mL | MIC50 [10]: > 64 µg/mL | MIC50 [11]: > 64 µg/mL | MIC50 [12]: > 64 µg/mL | MIC50 [13]: > 64 µg/mL | MIC50 [14]: 64 µg/mL (≈ 172 µM) | MIC50 [15]: > 64 µg/mL | MIC50 [16]: 64 µg/mL (≈ 172 µM)

CS(=O)(=O)c1ccc(C(=O)C2C(=O)CCCC2=O)c(Cl)c1 [SULCOTRIONE]
MIC50 [1]: > 64 µg/mL

O=[N+]([O-])c1ccc(COc2ccc([N+](=O)[O-])c(Br)c2)o1
MIC50 [1]: 2 µg/mL (≈ 5.83 µM) | MIC90 [1]: 2 µg/mL (≈ 5.83 µM) | IC50 [2]: 26 µM | IC50 [3]: 62 µM | IC50 at 48 h [4]: 16 µM | IC50 at 48 h [5]: 60 µM | Activity [6]: Active | Activity [7]: Dose-Dependent Effect | Activity [18]: ~100% | inhibition [8]: Dose-Dependent Effect | inhibition at 1 µg/mL [19]: > 50% | MIC50 [9]: 16 µg/mL (≈ 46.6 µM) | MIC50 [10]: 64 µg/mL (≈ 187 µM) | MIC50 [11]: 64 µg/mL (≈ 187 µM) | MIC50 [12]: 32 µg/mL (≈ 93.3 µM) | MIC50 [13]: > 64 µg/mL | MIC50 [14]: > 64 µg/mL | MIC50 [15]: > 64 µg/mL | MIC50 [16]: 64 µg/mL (≈ 187 µM) | Activity [20]: Dose-Dependent Effect | Activity [21]: Dose-Dependent Effect | Activity [22]: Active | mortality at 168 h [23]: 0% | LD50 at 168 h [24]: > 2590 mg/kg | Activity [25]: Non-Toxic | Activity [26]: Non-Toxic | Activity [27]: Non-Toxic | Activity [28]: Non-Toxic | Activity [29]: Non-Toxic | half-life at 1 µM [30]: 21.3 min | Drug metabolism [31]: Metabolite_Detected

O=C(Nc1cc(Cl)cc([N+](=O)[O-])c1)c1ccc(C(F)(F)F)cc1[N+](=O)[O-]
MIC50 [1]: > 64 µg/mL

O=C1OCCN1/N=C/c1ccc([N+](=O)[O-])o1 [FURAZOLIDONE]
MIC50 [1]: 16 µg/mL (≈ 71.1 µM)

Cc1cc(NC(=O)c2ccc(C(F)(F)F)cc2[N+](=O)[O-])on1
MIC50 [1]: > 64 µg/mL

O=C(Nc1ccc([N+](=O)[O-])c(Cl)c1)c1ccc([N+](=O)[O-])cc1F
MIC50 [1]: > 64 µg/mL
